Laboratory results published in ChEMBL document CHEMBL1201862, “PubChem BioAssay data set” (2004).
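Protocol summary: plate cells (96-well), add compound at 5 concentrations, incubate 48 h, interpolate endpoints linearly. GI50 marks 50% less growth.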 The source made the active and inactive calls. Rule as the data show it: active = GI50 up to about 1.1 µM and inactive = higher.

Columns and labels:
Assay in all cases: NCI-60 cell line screen, 48 h
SF-295 = test system: SF-295
EKVX = test system: EKVX
OVCAR-8 = test system: OVCAR-8
SK-MEL-28 = test system: SK-MEL-28
SF-539 = test system: SF-539
SNB-75 = test system: SNB-75
HCT-116 = test system: HCT-116
UACC-62 = test system: UACC-62
HOP-92 = test system: HOP-92
M14 = test system: M14
MOLT-4 = test system: MOLT-4
HL-60 = test system: HL-60
RXF 393 = test system: RXF 393
K562 = test system: K562
OVCAR-4 = test system: OVCAR-4
TK-10 = test system: TK-10
UO-31 = test system: UO-31
CCRF-CEM = test system: CCRF-CEM
Malme-3M = test system: Malme-3M
NCI-H522 = test system: NCI-H522

Measured: GI50

O=c1[nH]c(=O)n(C2CC(O)C(O)C(CO)O2)cc1F (stereo not given)
inactive: SF-295 > 100 µM | EKVX > 100 µM | OVCAR-8 > 100 µM | SK-MEL-28 > 100 µM | SF-539 > 100 µM | SNB-75 > 100 µM | HCT-116 > 100 µM | UACC-62 > 100 µM | HOP-92 > 100 µM | M14 > 100 µM | MOLT-4 > 100 µM | HL-60 > 100 µM | RXF 393 > 100 µM | K562 > 100 µM | OVCAR-4 > 100 µM | TK-10 > 100 µM | UO-31 > 100 µM | CCRF-CEM > 100 µM | Malme-3M > 100 µM | NCI-H522 > 100 µM
